Experimental data taken from publication PMC6934184, “Selective DNA-PKcs inhibition extends the therapeutic index of localized radiotherapy and chemotherapy” (The Journal of Clinical Investigation, 2019).

Molecular target: T1, FGFR3 K650E (Homo sapiens, UniProt P22607, K650E)
T1 construct: purchased Thermo Fisher Scientific (Life Technologies) SelectScreen
Experiment: SelectScreen Z'LYTE
Assay type: biochemical
Summary of the method: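 NU5455 was profiled across the SelectScreen Broad panel of kinase activity and binding assays. Z'LYTE reactions such as CSF1R ran at apparent Km ATP, while the Adapta CAMK1 assay used ATP listed as 10. Values are given as percent.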

T1 sequence (P22607 23-806 K650E): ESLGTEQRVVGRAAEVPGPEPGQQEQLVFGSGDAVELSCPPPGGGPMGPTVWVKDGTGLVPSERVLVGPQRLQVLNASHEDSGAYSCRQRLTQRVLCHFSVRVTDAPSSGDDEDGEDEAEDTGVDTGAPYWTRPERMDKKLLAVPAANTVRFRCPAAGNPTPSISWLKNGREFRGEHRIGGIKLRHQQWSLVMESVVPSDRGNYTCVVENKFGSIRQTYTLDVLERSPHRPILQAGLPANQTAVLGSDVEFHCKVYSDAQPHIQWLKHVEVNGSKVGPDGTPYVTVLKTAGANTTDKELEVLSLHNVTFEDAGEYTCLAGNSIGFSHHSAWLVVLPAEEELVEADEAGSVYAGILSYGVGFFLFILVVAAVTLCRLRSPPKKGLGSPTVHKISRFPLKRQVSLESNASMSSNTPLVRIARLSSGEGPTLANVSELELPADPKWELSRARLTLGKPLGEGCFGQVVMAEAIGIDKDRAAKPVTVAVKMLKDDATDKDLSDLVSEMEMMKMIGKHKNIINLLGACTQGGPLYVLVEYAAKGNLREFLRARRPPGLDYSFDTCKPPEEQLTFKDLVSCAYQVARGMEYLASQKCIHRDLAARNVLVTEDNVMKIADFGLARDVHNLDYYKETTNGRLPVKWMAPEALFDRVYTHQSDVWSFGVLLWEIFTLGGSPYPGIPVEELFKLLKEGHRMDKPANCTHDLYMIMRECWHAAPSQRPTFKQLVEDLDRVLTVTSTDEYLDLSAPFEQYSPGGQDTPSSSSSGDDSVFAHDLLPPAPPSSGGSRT

## CN(C(=O)CN1CCOCC1)c1ccc2sc3c(-c4cccc5c(=O)cc(N6CC7CCC(C6)O7)oc45)cccc3c2c1 [NU5455]
  inhibition at 1 µM: 7.9%
